Data from US8501446B2 (Vertex Pharmaceuticals Incorporated, priority 2004, dated 2013).
Where two headings read alike, the source gives them in different places.

Legend:
Format in all cases: biochemical
JAK3 = molecular target: T1, JAK3 (Homo sapiens, UniProt P52333); assay: JAK3 inhibition assay (standard radioactive enzyme assay); conditions: average Ki if more than one value determined
T1 sequence (P52333 1-1124): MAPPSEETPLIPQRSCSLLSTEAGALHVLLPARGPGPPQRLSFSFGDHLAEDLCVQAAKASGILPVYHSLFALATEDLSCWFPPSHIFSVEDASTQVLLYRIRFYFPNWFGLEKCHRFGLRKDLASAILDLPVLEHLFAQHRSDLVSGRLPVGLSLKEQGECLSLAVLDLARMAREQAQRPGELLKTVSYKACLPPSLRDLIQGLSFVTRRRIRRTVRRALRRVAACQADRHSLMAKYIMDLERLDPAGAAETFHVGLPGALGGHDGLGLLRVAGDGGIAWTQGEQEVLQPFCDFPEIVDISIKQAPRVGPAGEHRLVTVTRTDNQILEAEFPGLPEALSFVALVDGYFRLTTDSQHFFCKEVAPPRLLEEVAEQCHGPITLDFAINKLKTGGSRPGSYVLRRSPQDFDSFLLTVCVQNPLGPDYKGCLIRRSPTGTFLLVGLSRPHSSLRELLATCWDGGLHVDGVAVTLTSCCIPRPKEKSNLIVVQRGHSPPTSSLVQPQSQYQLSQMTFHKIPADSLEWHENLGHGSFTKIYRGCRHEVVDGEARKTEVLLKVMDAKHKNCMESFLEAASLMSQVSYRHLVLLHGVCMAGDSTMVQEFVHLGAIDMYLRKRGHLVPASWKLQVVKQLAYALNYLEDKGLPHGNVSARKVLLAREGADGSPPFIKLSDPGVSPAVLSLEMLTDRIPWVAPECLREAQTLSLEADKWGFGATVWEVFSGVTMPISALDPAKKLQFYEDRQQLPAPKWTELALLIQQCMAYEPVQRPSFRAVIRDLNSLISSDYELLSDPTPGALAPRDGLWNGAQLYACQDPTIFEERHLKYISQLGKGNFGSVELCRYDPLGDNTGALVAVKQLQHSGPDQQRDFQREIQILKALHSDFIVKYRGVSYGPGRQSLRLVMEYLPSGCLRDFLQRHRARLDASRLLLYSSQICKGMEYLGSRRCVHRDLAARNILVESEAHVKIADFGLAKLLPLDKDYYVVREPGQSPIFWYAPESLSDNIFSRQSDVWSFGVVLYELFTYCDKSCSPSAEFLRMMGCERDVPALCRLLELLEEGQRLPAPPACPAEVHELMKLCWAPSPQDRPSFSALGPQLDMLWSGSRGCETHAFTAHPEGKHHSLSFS

JAK2 = JAK2 (Homo sapiens, UniProt O60674); assay: JAK2 inhibition assay (radioactive enzyme assay, as for JAK3); conditions: average Ki if more than one value determined
Procedure, shortened: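 Both kinases: poly(Glu)4Tyr substrate in 100 mM HEPES pH 7.4, 10 mM MgCl2, 1 mM DTT. Run 20 min at 25° C, TCA stop, filter-bound ³³P counted, Ki(app) fitted after background subtraction. JAK3: final [γ-³³P]ATP 5 μM, enzyme added as 2 nM solution. JAK2: final poly(Glu)4Tyr 15 μM, final ATP 12 μM.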

ROCK = ROCK (Homo sapiens, UniProt Q13464); assay: ROCK inhibition assay, standard radioactive enzyme assay ("33P")
Protocol: Some compounds were screened for their ability to inhibit ROCK using a standard radioactive enzyme assay. Assays were carried out in a solution containing 100 mM HEPES (pH 7.5), 10 mM MgCl2, 25 mM NaCl, 2 mM DTT, and 1.5% DMSO. Final substrate concentrations in the assay were 13 μM [γ-^33P] ATP (25 mCi ^33P ATP/mmol ATP, Perkin Elmer, Cambridge, Mass./Sigma Chemicals, St Louis, Mo.) and 27 μM Myelin Basic Protein (MBP). Final enzyme concentration in the assay was 5 nM ROCK. Assays were carried out at room temperature. 1.5 μl of DMSO stock containing serial dilutions of the compound of the present invention (concentrations ranging from 10 μM to 2.6 nM) was placed in a 96 well plate. 50 μl of Solution 1 (100 mM HEPES (pH 7.5), 10 mM MgCl2, […]) was added to the plate. The reaction was initiated by addition of 50 μl of Solution 2 (100 mM HEPES (pH 7.5), 10 mM MgCl2, 4 mM DTT, […] and 10 nM ROCK). After 2 hours the reaction was quenched with 50 μL of 30% trichloroacetic acid (TCA, Fisher) containing 9 mM ATP. Transfer of 140 μL of the quenched reaction to a glass fiber filter plate (Corning, Cat. No. 3511) was followed by washing 3 times with 5% TCA. 50 μL of Optima Gold scintillation fluid (Perkin Elmer) was added and the plates were counted on a Top Count (Perkin Elmer). After removing mean background values for all of the data points the data was fit using Prism software to obtain a Ki(app).

ROCK I (AA 6-553) = molecular target: T2, ROCK I (AA 6-553) (Homo sapiens, UniProt Q13464); assay: ROCK inhibition assay, standard coupled enzyme system ("Enzyme"); conditions: enzyme-linked assay
T2 construct: ROCK I (AA 6-553)
Procedure, shortened: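 ROCK I (AA 6-553) at 45 nM and 30 °C with 45 μM ATP and 200 μM peptide, in 100 mM HEPES pH 7.5, 10 mM MgCl2, 25 mM NaCl, 2 mM DTT, 1.5% DMSO. ADP output read by a PK/LDH coupled system: 2.5 mM PEP, 350 μM NADH, 30 μg/ml PK, 10 μg/ml LDH.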

[1] = molecular target: T3, full length Aurora-A (AA 1-403) (Homo sapiens, UniProt O14965); assay: Aurora-A inhibition assay, standard coupled enzyme system; conditions: average Ki if more than one value determined
T3 construct: full length Aurora-A (AA 1-403)
T3 sequence (O14965 1-403): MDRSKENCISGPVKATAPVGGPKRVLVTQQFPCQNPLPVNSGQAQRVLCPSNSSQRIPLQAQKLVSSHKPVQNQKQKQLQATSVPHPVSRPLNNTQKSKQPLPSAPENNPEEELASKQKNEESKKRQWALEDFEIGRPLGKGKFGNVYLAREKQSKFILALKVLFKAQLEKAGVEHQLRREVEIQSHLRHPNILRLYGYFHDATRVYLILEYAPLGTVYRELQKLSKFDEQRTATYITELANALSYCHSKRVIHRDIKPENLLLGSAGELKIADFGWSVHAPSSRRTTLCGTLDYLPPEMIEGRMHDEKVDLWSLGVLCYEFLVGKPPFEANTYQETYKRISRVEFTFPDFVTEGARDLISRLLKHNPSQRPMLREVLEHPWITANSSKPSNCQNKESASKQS

Aurora-C = molecular target: T4, Aurora-C (Homo sapiens, UniProt Q9UQB9); assay: Aurora-C inhibition assay, coupled enzyme system as for Aurora-A; conditions: average Ki if more than one value determined
T4 sequence (Q9UQB9 1-309): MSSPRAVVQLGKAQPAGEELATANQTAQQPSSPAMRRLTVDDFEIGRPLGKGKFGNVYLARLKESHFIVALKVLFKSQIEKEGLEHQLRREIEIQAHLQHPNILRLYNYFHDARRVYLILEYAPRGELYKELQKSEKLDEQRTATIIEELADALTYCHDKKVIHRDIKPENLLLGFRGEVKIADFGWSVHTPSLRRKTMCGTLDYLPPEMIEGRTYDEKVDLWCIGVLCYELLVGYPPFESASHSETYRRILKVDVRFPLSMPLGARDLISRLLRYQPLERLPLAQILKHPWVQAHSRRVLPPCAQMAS
Protocol: Compounds were screened for their ability to inhibit full length Aurora-A (AA 1-403) activity using a standard coupled enzyme system (Fox et al., Protein Sci. 7, pp. 2249 (1998)). Reactions were carried out in a solution containing 100 mM HEPES (pH 7.5), 10 mM MgCl2, 25 mM NaCl, 300 μM NADH, 1 mM DTT and 3% DMSO. Final substrate concentrations in the assay were 200 μM ATP (Sigma Chemicals, St Louis, Mo.) and 800 μM peptide (LRRASLG, American Peptide, Sunnyvale, Calif.). Reactions were carried out at 30° C. and 35 nM Aurora-A. Final concentrations of the components of the coupled enzyme system were 2.5 mM phosphoenolpyruvate, 200 μM NADH, 60 μg/ml pyruvate kinase and 20 μg/ml lactate dehydrogenase.
An assay stock buffer solution was prepared containing all of the reagents listed above with the exception of ATP and the test compound of interest. The assay stock buffer solution (60 μl) was incubated in a 96 well plate with 2 μl of the test compound of interest at final concentrations spanning 0.002 μM to 30 μM at 30° C. for 10 min. Typically, a 12 point titration was conducted by preparing serial dilutions (from 1 mM compound stocks) with DMSO of the test compounds in daughter plates. The reaction was initiated by the addition of 5 μl of ATP (final concentration 200 μM). Rates of reaction were obtained using a Molecular Devices Spectramax plate reader (Sunnyvale, Calif.) over 10 min at 30° C. The Ki values were determined from the rate data as a function of inhibitor concentration using computerized nonlinear regression (Prism 3.0, Graphpad Software, San Diego, Calif.). Aurora-C activity was screened in a similar manner using Aurora-C protein. Aurora-B activity was screened using a radioactive assay, such as described in Examples 1 and 2, but using Aurora-B protein.

Aurora-B = Aurora-B (Homo sapiens, UniProt Q96GD4); assay: Aurora-B inhibition assay, radioactive assay; conditions: average Ki if more than one value determined
Procedure, shortened: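 Aurora-B protein substituted into the standard radioactive kinase format: reaction quenched with TCA, product captured on glass fiber filters and 33P counted. Ki(app) derived by fitting background-corrected counts against inhibitor concentration.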

Chain of JAK2 (O60674 whole entry, species assumed): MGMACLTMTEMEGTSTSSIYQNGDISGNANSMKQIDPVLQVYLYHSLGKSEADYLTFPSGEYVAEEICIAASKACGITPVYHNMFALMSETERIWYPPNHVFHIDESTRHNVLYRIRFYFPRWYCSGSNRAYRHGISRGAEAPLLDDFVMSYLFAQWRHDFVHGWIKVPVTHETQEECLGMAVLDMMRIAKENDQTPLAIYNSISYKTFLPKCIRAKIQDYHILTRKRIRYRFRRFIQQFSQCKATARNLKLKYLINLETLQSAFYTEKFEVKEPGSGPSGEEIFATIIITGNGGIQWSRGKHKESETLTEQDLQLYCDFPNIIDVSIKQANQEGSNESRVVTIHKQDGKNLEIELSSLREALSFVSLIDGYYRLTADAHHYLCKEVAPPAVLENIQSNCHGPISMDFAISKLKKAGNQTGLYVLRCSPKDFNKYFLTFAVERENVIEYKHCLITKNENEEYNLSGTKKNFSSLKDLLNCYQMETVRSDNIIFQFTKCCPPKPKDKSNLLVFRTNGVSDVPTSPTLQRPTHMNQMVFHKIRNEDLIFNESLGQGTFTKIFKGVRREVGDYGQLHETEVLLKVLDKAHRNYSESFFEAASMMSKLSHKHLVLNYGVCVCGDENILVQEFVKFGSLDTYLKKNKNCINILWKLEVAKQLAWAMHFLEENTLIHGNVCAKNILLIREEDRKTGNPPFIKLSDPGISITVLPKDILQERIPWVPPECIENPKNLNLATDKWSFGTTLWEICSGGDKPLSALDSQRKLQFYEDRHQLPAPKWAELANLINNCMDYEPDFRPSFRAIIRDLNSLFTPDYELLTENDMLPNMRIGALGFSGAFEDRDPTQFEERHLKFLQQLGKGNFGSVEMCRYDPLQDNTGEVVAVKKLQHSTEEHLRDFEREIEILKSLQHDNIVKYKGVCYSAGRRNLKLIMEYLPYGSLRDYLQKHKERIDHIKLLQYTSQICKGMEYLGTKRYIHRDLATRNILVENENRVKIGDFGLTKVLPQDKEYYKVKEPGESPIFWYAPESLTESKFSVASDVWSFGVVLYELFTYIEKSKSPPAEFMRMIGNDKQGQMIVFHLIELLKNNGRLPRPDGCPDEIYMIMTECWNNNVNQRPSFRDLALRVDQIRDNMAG
Chain of Aurora-B (Q96GD4 whole entry): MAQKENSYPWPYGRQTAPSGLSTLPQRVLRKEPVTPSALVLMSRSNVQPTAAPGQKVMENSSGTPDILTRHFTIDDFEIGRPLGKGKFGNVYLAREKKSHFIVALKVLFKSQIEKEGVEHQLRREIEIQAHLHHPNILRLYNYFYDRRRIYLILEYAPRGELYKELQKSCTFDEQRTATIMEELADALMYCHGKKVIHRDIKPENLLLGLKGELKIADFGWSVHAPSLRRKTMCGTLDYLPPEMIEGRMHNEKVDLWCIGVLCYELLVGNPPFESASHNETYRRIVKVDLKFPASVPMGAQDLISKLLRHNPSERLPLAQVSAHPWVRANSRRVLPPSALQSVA
T2 sequence (Q13464 6-553, species assumed): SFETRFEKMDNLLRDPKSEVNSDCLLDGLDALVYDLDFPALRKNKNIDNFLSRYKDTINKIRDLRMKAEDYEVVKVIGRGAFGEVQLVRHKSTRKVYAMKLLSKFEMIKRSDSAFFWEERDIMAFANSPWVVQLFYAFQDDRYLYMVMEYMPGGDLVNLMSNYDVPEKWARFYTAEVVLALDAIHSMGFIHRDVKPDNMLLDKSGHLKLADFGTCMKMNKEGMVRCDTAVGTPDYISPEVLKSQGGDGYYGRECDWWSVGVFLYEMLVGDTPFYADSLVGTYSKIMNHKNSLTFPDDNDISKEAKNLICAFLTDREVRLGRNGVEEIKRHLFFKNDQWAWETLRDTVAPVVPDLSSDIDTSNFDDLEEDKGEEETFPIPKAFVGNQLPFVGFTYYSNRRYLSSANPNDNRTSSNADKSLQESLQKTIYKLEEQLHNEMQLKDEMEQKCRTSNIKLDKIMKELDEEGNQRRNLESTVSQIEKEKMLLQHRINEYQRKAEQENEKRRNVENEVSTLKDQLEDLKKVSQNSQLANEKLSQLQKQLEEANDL
Chain of ROCK (Q13464 whole entry): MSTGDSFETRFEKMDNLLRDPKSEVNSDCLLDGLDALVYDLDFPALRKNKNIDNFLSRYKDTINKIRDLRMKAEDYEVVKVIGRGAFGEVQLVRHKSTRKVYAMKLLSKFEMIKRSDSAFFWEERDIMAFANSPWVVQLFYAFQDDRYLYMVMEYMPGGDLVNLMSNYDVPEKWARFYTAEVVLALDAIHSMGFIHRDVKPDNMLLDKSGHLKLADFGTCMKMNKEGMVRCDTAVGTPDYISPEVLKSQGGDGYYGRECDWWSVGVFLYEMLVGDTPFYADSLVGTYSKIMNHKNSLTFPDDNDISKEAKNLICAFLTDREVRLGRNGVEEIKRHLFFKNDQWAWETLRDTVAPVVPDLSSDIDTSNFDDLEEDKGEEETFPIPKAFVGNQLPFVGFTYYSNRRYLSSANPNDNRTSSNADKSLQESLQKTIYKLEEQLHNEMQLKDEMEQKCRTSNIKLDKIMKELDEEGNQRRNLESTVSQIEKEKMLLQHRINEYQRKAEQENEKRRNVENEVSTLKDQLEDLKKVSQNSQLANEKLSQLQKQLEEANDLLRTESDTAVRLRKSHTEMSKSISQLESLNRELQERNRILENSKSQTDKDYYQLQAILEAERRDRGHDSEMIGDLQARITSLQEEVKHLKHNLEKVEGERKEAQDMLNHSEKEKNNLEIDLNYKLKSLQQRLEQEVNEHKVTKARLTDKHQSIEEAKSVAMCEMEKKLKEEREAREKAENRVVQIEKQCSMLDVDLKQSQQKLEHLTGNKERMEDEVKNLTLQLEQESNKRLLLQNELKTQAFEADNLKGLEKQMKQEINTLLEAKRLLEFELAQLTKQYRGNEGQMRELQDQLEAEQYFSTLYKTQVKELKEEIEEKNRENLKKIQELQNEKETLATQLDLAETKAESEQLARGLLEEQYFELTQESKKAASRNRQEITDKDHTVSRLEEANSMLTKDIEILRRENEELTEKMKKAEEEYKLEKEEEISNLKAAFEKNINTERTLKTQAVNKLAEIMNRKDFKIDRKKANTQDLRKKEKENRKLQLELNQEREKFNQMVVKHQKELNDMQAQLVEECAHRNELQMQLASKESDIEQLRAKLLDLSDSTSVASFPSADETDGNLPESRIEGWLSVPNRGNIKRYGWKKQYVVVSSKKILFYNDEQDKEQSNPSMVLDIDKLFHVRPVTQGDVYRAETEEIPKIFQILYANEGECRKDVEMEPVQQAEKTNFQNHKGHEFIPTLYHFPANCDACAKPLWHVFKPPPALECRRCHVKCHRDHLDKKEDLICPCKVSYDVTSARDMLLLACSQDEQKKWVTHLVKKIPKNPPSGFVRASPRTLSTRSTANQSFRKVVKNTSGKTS

Ki (JAK3) [nM] | Ki (JAK2) [nM] | Ki (ROCK) [nM] | Ki (ROCK I (AA 6-553)) [nM] | Ki [1] [nM] | Ki (Aurora-C) [nM] | Ki (Aurora-B) [nM] | Ki (ROCK; Ki(app)) [nM] | Compound
500 to 5000 | 500 to 5000 | < 500 | – | – | – | – | – | C[C@@H]1CCNCC1N(C)c1cc(-c2c[nH]c3ncccc23)ncn1 (stereo partly drawn) [Compound 17]
< 500 | < 500 | 500 to 5000 | – | – | – | – | – | CC(=O)N1CCCN(c2nccc(-c3c[nH]c4ncc(Cl)cc34)n2)CC1 [Compound 5]
< 500 | < 500 | < 500 | – | – | – | – | – | Fc1cccc(CNc2cc(-c3c[nH]c4ncccc34)ncn2)c1 [Compound 16]
– | – | < 500 | < 500 | < 500 | – | – | – | CS(=O)(=O)c1cccc(-c2c[nH]c3ncc(-c4ccccc4)cc23)c1 [Compound 218]
500 to 5000 | 500 to 5000 | < 500 | – | – | – | – | – | c1ccc(-c2cccc(CNc3cc(-c4c[nH]c5ncccc45)ncn3)c2)cc1 [Compound 23]
< 500 | < 500 | < 500 | – | – | – | – | – | COc1cnc2[nH]cc(-c3cc(NCc4ccccc4)ncn3)c2c1 [Compound 12]
– | – | 500 to 5000 | 500 to 5000 | < 500 | – | – | – | CN(C)C(=O)c1ccc(-c2c[nH]c3ncc(-c4ccccc4)cc23)cc1 [Compound 219]
500 to 5000 | 500 to 5000 | 500 to 5000 | – | – | – | – | – | C[C@@H]1CCN(Cc2ccccc2)CC1N(C)c1cc(-c2c[nH]c3ncccc23)ncn1 (stereo partly drawn) [Compound 15]
– | – | 500 to 5000 | 500 to 5000 | < 500 | – | – | – | Brc1cnc2[nH]c(-c3ccccc3)c(-c3ccc(N4CCOCC4)cc3)c2c1 [Compound 217]
– | 500 to 5000 | – | 500 to 5000 | < 500 | < 500 | < 500 | – | Cc1cc(N[C@@H](C)C(=O)NCCNS(C)(=O)=O)nc(-c2c[nH]c3ncc(Cl)cc23)n1 [Compound 450]
– | < 500 | – | 500 to 5000 | < 500 | < 500 | < 500 | – | CCc1cnc(-c2c[nH]c3ncc(Cl)cc23)nc1N[C@@H](C)c1ccc(F)cc1 [Compound 386]
– | – | 500 to 5000 | – | < 500 | – | – | – | c1ccc(-c2cnc3[nH]cc(-c4ccccc4)c3c2)cc1 [Compound 213]
– | < 500 | – | 500 to 5000 | < 500 | < 500 | < 500 | – | C[C@H](Nc1nc(-c2c[nH]c3ncc(Cl)cc23)ncc1C(F)(F)F)c1ccc(F)cc1 [Compound 371]
– | 500 to 5000 | – | 500 to 5000 | < 500 | < 500 | < 500 | – | C[C@H](Nc1nc(-c2c[nH]c3ncc(Cl)cc23)ncc1F)C(=O)NCCc1ccc(S(N)(=O)=O)cc1 [Compound 446]
– | – | 500 to 5000 | – | < 500 | – | – | – | COc1ccc(OC)c(-c2c[nH]c3ncc(-c4ccccc4)cc23)c1 [Compound 216]
– | < 500 | – | 500 to 5000 | < 500 | < 500 | < 500 | – | C[C@H](Nc1nc(-c2c[nH]c3ncc(Cl)cc23)ncc1F)C(=O)NCCn1cccc1 [Compound 443]
– | – | – | – | < 500 | – | – | < 500 | COc1cc(-c2c[nH]c3ncccc23)ccc1C(N)=O [Compound 31, 2-Methoxy-4-(1H-pyrrolo[2,3-b]pyridin-3-yl)-benzamide]
– | – | 500 to 5000 | – | < 500 | – | – | – | Brc1cnc2[nH]c(-c3ccccc3)c(-c3ccccc3)c2c1 [Compound 211]
– | – | 500 to 5000 | – | 500 to 5000 | – | – | – | CCOc1cccc(-c2c[nH]c3ncc(-c4ccccc4)cc23)c1 [Compound 215]
– | – | 500 to 5000 | – | 500 to 5000 | – | – | – | COc1cccc(-c2c[nH]c3ncc(-c4ccccc4)cc23)c1 [Compound 214]
– | 500 to 5000 | – | 500 to 5000 | < 500 | < 500 | < 500 | – | CC(=O)NCCNC(=O)[C@H](C)Nc1nc(-c2c[nH]c3ncc(Cl)cc23)ncc1F [Compound 444]
